28 compounds from patent US20230091047A1 (priority 2019, published 2023) can be followed below.

Read-outs that look alike come from different tables or passages of the source. Bounds are passed on as bounds.

Series [1] concerns HBV (HepG2.117 cell line, inducibly HBV producing). The series can be described thus: Anti-HBV activity: intracellular HBV DNA by real-time PCR in HepG2.117 cells after 3 days of treatment. The class given is cell-based, hepatitis B virus. The method, boiled down: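 HepG2.117 cells replicate HBV under Tet-off control, without doxycycline. After induction of replication, cells were treated with serially diluted compound for 3 days, and intracellular HBV DNA was then quantified by real-time PCR with an HBV-specific primer set and probe.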
Background: Quantitative PCR measures a nucleic acid by following its amplification.

Another series can be described thus: in vitro. It is filed as cell-based. The conditions noted are these: human, HepG2 or HepG2.117 cells, ATPlite, mean value. The method, boiled down: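 Luminescent ATP quantitation served as the viability endpoint following a 3- or 4-day incubation with test compounds.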
(In general: In ATP-based viability assays light output follows the ATP content of the culture.)

Where [2] appears, read: Hepatitis B virus, HepG2.117, 72 h, HepG2.117 cells, 3 days of treatment, intracellular HBV DNA by real-time PCR; mean value; read-out: EC50 (μM, mean value).
[3] abbreviates: 3-days incubation (unmarked values).
The mark [4] stands for this setting: Hepatitis B virus, HepG2.117, 72 h, HepG2.117 cells, intracellular HBV DNA by real-time PCR, 3 days of treatment, mean value; read-out: EC50 (μM, mean value).
The mark [5] stands for this setting: 3-days incubation (not marked with *).

By EC50 is commonly meant the concentration needed to bring the measured effect to its halfway point. As usually defined, the CC50 is the concentration giving 50% cytotoxicity. A higher CC50 goes with lower toxicity to the cells. `CC(C)Nc1nc2c(c(=O)n1-c1ccc(C(=O)NCCN3CCN(C)CC3)cc1)C[C@@H](C)N(C(=O)c1ccc(Cl)c(Cl)c1)C2` [Compound C208, 4-[(6R)-7-(3,4-dichlorobenzoyl)-6-methyl-4-oxo-2-[(propan-2-yl)amino]-5,6,7,8-tetrahydropyrido[3,4-d]pyrimidin-3(4H)-yl]-N-[2-(4-methylpiperazin-1-yl)ethyl]benzamide]: in series [1] (setting [2]), the EC50 stood at 0.62 µM. In the series “in vitro” (setting [3]), this compound yielded a CC50 at 3 days of 26.3 µM.

On to `CC(C)Nc1nc2c(c(=O)n1-c1ccc(-c3nccn3C)cc1)CCN(C(=O)c1ccc(Cl)c(Cl)c1)C2` [Compound C174, 7-(3,4-dichlorobenzoyl)-3-[4-(1-methyl-1H-imidazol-2-yl)phenyl]-2-[(propan-2-yl)amino]-5,6,7,8-tetrahydropyrido[3,4-d]pyrimidin-4(3H)-one], for which, in series [1] (setting [2]), the EC50 came to 0.42 µM. For the same compound, the CC50 at 3 days in “in vitro” (setting [3]) amounted to 6.8 µM.

As for `CNC(=O)c1ccc(-n2c(NCC(C)c3nncn3C)nc3c(c2=O)C[C@@H](C)N(C(=O)c2ccc(Cl)c(Cl)c2)C3)cc1` (some centres unmarked) [Compound C551], the concentration for a half-maximal effect (EC50) in series [1] (setting [4]) was > 25 µM. The CC50 at 3 days in “in vitro” (setting [5]) is > 50 µM.

`CC(C)Nc1nc2c(c(=O)n1-c1ccc(S(C)(=O)=O)cc1)CCN(C(=O)C1Cc3ccccc3N1)C2` (centres unmarked) [Compound C184, 7-(2,3-dihydro-1H-indole-2-carbonyl)-3-[4-(methanesulfonyl)phenyl]-2-[(propan-2-yl)amino]-5,6,7,8-tetrahydropyrido[3,4-d]pyrimidin-4(3H)-one]: in series [1] (setting [2]), the EC50 is 0.71 µM. Besides, the CC50 at 3 days in “in vitro” (setting [3]) was > 50 µM.

In the case of `COc1ccccc1-n1c(NC2COC2)nc2c(c1=O)CCN(C(=O)c1ccc(Cl)c(Cl)c1)C2` [Compound C48, 7-(3,4-dichlorobenzoyl)-3-(2-methoxyphenyl)-2-[(oxetan-3-yl)amino]-5,6,7,8-tetrahydropyrido[3,4-d]pyrimidin-4(3H)-one], the EC50 in series [1] (setting [2]) came to 30.1 µM. The CC50 at 3 days in “in vitro” (setting [3]) was > 50 µM.

As to `COC(=O)c1ccc(-n2c(NC(C)C)nc3c(c2=O)C[C@@H](C)N(C(=O)c2ccc(Cl)c(Cl)c2)C3)cn1` [Compound C226], in series [1] (setting [2]), the EC50 was found to be 2.3 µM. Moreover, in “in vitro” (setting [3]), the CC50 at 3 days was > 50 µM.

For `CC(C)Nc1nc2c(c(=O)n1-c1ccc(S(C)(=O)=O)cc1)CCN(C(=O)c1ccc(C(F)(F)F)nc1)C2` [Compound C367], the EC50 in series [1] (setting [2]) is > 10 µM. In “in vitro” (setting [3]), the CC50 at 3 days was > 50 µM.

As to `COc1ccc(CNc2nc3c(c(=O)n2-c2ccc(F)c(C#N)c2)CCN(C(=O)c2ccc(Cl)c(Cl)c2)C3)cc1` [Compound C77, 5-[7-(3,4-dichlorobenzoyl)-2-{[(4-methoxyphenyl)methyl]amino}-4-oxo-5,6,7,8-tetrahydropyrido[3,4-d]pyrimidin-3(4H)-yl]-2-fluorobenzonitrile], the EC50 in series [1] (setting [2]) worked out at 1.58 µM. In “in vitro” (setting [3]), the CC50 at 3 days is > 50 µM.

Turning to `CNC(=O)c1ncc(-n2c(NC(C)C)nc3c(c2=O)C[C@@H](C)N(C(=O)c2ccc(Cl)c(Cl)c2)C3)cn1` [Compound C328, 5-[(6R)-7-(3,4-dichlorobenzoyl)-6-methyl-4-oxo-2-[(propan-2-yl)amino]-5,6,7,8-tetrahydropyrido[3,4-d]pyrimidin-3(4H)-yl]-N-methylpyrimidine-2-carboxamide], the EC50 in series [1] (setting [2]) was 0.51 µM. The CC50 at 3 days in the series “in vitro” (setting [3]) was > 50 µM.

As to `COc1ccc(CNc2nc3c(c(=O)n2-c2ccc(S(C)(=O)=O)cc2)CCN(C(=O)c2ccc(Cl)c(Cl)c2)C3)cc1` [Compound C84, 7-(3,4-dichlorobenzoyl)-3-[4-(methanesulfonyl)phenyl]-2-{[(4-methoxyphenyl)methyl]amino}-5,6,7,8-tetrahydropyrido[3,4-d]pyrimidin-4(3H)-one], the EC50 in series [1] (setting [2]) is 0.57 µM. Further, the CC50 at 3 days in “in vitro” (setting [3]) is > 50 µM.

For `CNC(=O)c1cc(Cl)c(-n2c(NC(C)C)nc3c(c2=O)C[C@@H](C)N(C(=O)c2ccc(Cl)c(Cl)c2)C3)cc1OC` [Compound C322, 5-chloro-4-[(6R)-7-(3,4-dichlorobenzoyl)-6-methyl-4-oxo-2-[(propan-2-yl)amino]-5,6,7,8-tetrahydropyrido[3,4-d]pyrimidin-3(4H)-yl]-2-methoxy-N-methylbenzamide], the EC50 in series [1] (setting [2]) was found to be 0.28 µM. In addition, the midpoint of cytotoxicity in “in vitro” (setting [3]), the CC50 at 3 days, lay at 24.2 µM.

Consider `COc1ccccc1-n1c(N[C@H](C)C(F)(F)F)nc2c(c1=O)CCN(C(=O)c1ccc(Cl)c(Cl)c1)C2` (single isomer, unassigned) [Compound C101a], for which the EC50 in series [1] (HepG2.117 cells, 3 days of treatment, intracellular HBV DNA by real-time PCR; mean value; read-out: EC50 (μM, mean value)) was 22.1 µM. The same compound registered a CC50 at 3 days in the series “in vitro” (setting [3]) of 36.9 µM.

As for `COc1ccc(CNc2nc3c(c(=O)[nH]2)CC(C)N(C(=O)c2ccc(Cl)c(Cl)c2)C3)cc1` (centres unmarked) [Compound C63, 7-(3,4-dichlorobenzoyl)-2-{[(4-methoxyphenyl)methyl]amino}-6-methyl-5,6,7,8-tetrahydropyrido[3,4-d]pyrimidin-4(3H)-one], in series [1] (setting [2]), the EC50 was 2.59 µM. For the same compound, in “in vitro” (setting [3]), the CC50 at 3 days came out at 28.4 µM.

For `CC(=O)Nc1ccc(-n2c(N[C@@H](C)c3ccc4[nH]ncc4c3)nc3c(c2=O)C[C@@H](C)N(C(=O)c2ccc(Cl)c(Cl)c2)C3)cc1` (single isomer, unassigned) [Compound C462b], the EC50 in series [1] (setting [4]) stood at 0.37 µM. In the series “in vitro” (setting [5]), the CC50 at 3 days was > 50 µM.

With `CNC(=O)c1ccc(-n2c(N[C@H]3C[C@H]4CC[C@]3(C)C4(C)C)nc3c(c2=O)C[C@@H](C)N(C(=O)c2ccc(Cl)c(Cl)c2)C3)cc1` [Compound C621], in series [1] (setting [4]), the EC50 is > 2.5 µM. This compound also showed a CC50 at 3 days in “in vitro” (setting [5]) of 5.99 µM.

With `COc1ccccc1-n1c(NC(C)C2CC2)nc2c(c1=O)CCN(C(=O)c1ccc(Cl)c(Cl)c1)C2` (centres unmarked) [Compound C47, 2-[(1-cyclopropylethyl)amino]-7-(3,4-dichlorobenzoyl)-3-(2-methoxyphenyl)-5,6,7,8-tetrahydropyrido[3,4-d]pyrimidin-4(3H)-one], in series [1] (setting [2]), the EC50 is 2.68 µM. The compound further showed a CC50 at 3 days in “in vitro” (setting [3]) of 27.3 µM.

`CNC(=O)c1ccc(-n2c(NC(C)c3ccc(C(F)(F)F)s3)nc3c(c2=O)C[C@@H](C)N(C(=O)c2ccc(Cl)c(Cl)c2)C3)cc1` (some centres unmarked) [Compound C596]: the EC50 in series [1] (setting [4]) was 0.4 µM. Also, half-maximal cytotoxicity in “in vitro” (setting [5]) (CC50 at 3 days) was put at 25.5 µM.

As for `COc1ccc(C(C)Nc2nc3c(c(=O)n2-c2ccc(NC(C)=O)cc2)C[C@@H](C)N(C(=O)c2ccc(Cl)c(Cl)c2)C3)cc1` (some centres unmarked) [Compound C410], the EC50 in series [1] (setting [4]) came to 0.13 µM. Besides, in the series “in vitro” (setting [5]), the CC50 at 3 days was determined as 32.6 µM.

As for `CNC(=O)c1ccc(-n2c(NC(CC3CC3)c3ccccc3)nc3c(c2=O)C[C@@H](C)N(C(=O)c2ccc(Cl)c(Cl)c2)C3)cc1` (some centres unmarked) [Compound C437], the EC50 in series [1] (setting [4]) is 0.44 µM. In “in vitro” (setting [5]), this compound gave a CC50 at 3 days of 28.1 µM.

Take `CNC(=O)c1ccc(-n2c(NC(C)C)nc3c(c2=O)C[C@@H](C)N(C(=O)c2ccc(Cl)c(Cl)c2)C3)cn1` [Compound C265]: the EC50 in series [1] (setting [2]) amounted to 0.18 µM. Also, in “in vitro” (setting [3]), the cytotoxic concentration (CC50) at 3 days was > 50 µM.

For the compound `CNC(=O)c1ccc(-n2c(N3CCC[C@@H]3c3ccccc3)nc3c(c2=O)C[C@@H](C)N(C(=O)c2ccc(Cl)c(Cl)c2)C3)cc1` (single isomer, unassigned) [Compound C401a], the EC50 in series [1] (setting [4]) is 0.36 µM. The compound also came in with a CC50 at 3 days in the series “in vitro” (setting [5]) of 13.8 µM.

Consider `CNC(=O)c1cnc(-n2c(N[C@@H](C)c3ccc(C(F)(F)F)cc3)nc3c(c2=O)C[C@@H](C)N(C(=O)c2ccc(Cl)c(Cl)c2)C3)cn1` [Compound C615], for which, in series [1] (setting [4]), the EC50 was determined as 0.13 µM. Besides, in “in vitro” (setting [5]), the CC50 at 3 days is > 50 µM.

With `COc1ccc(CNc2nc3c(c(=O)n2C2COC2)CCN(C(=O)c2ccc(Cl)c(Cl)c2)C3)cc1` [Compound C58, 7-(3,4-dichlorobenzoyl)-2-{[(4-methoxyphenyl)methyl]amino}-3-(oxetan-3-yl)-5,6,7,8-tetrahydropyrido[3,4-d]pyrimidin-4(3H)-one], the EC50 in series [1] (setting [2]) was found to be 2.56 µM. The compound further gave a CC50 at 3 days in “in vitro” (setting [3]) of 42.8 µM.

Turning to `CC(C)Nc1nc2c(c(=O)n1-c1ccc(S(C)(=O)=O)cc1)CCN(C(=O)c1ccc3cncn3c1)C2` [Compound C356], the EC50 in series [1] (setting [2]) was > 50 µM. Further, the CC50 at 3 days in “in vitro” (setting [3]) was > 50 µM.

As for `COc1ccccc1-n1c(NCC2CCN(C(C)=O)CC2)nc2c(c1=O)CCN(C(=O)c1ccc(Cl)c(Cl)c1)C2` [Compound C25, 2-{[(1-acetylpiperidin-4-yl)methyl]amino}-7-(3,4-dichlorobenzoyl)-3-(2-methoxyphenyl)-5,6,7,8-tetrahydropyrido[3,4-d]pyrimidin-4(3H)-one], the EC50 in series [1] (setting [2]) was determined as 44.7 µM. In addition, in “in vitro” (setting [3]), the CC50 at 3 days was > 50 µM.

`CNC(=O)c1ccc(-n2c(NC(C)C)nc3c(c2=O)C[C@@H](C)N(C(=O)c2ccc(Cl)c(C(F)(F)F)c2)C3)nn1` [Compound C684]: the EC50 in series [1] (setting [4]) is 0.06 µM. The CC50 at 3 days in the series “in vitro” (setting [5]) is > 50 µM.

As for `CNC(=O)c1ccc(-n2c(NC(C)C)nc3c(c2=O)C[C@@H](C)N(C(=O)c2ccc(Cl)c(C(F)(F)F)c2)C3)c(C(F)F)c1` (single isomer, unassigned) [Compound C669a], the EC50 in series [1] (setting [4]) stood at 0.02 µM. The compound further showed a CC50 at 3 days in the series “in vitro” (setting [5]) of 29.8 µM.

For `COc1ccc(CNc2nc3c(c(=O)n2-c2cnccc2C)CCN(C(=O)c2ccc(Cl)c(Cl)c2)C3)cc1` [Compound C113, 7-(3,4-dichlorobenzoyl)-2-{[(4-methoxyphenyl)methyl]amino}-3-(4-methylpyridin-3-yl)-5,6,7,8-tetrahydropyrido[3,4-d]pyrimidin-4(3H)-one], the EC50 in series [1] (setting [2]) was 0.65 µM. Besides, in “in vitro” (setting [3]), the midpoint of cytotoxicity, the CC50 at 3 days, lay at 19.4 µM.
